This note sets out measurements from patent US12239132B2, “Compounds and methods for increasing soil nutrient availability” (SOUND AGRICULTURE COMPANY, priority 2018, dated 2025).

One test deals with Bradyrhizobium japonicum. Put plainly: RNASeq gene expression in Bradyrhizobium japonicum. Format: cell-based. The protocol:
Expression levels for all genes in a nitrogen fixing bacteria (Bradyrhizobium japonicum) were measured in the presence or absence of AB09 using Illumina RNASeq technology.

A further test has as its system innate soil microbes. The test can be described thus: Phosphate solubilization in commercial potting soil, sterile vs non-sterile. The conditions noted are these: 12 days. Format: cell-based. The protocol:
In some aspects, a compound disclosed herein, e.g., AB09, stimulates phosphate solubilization of innate soil microbes. The induced phosphate solubilization enhancement was tested for in plant-free soil, which contains an innate diverse microflora of bacteria and fungi. Soil was evenly distributed into pots, half of which were pressure-sterilized in an autoclave. Half of the sterile and half of the non-sterile soil received a treatment. Control pots received a mock treatment. Pots were covered, incubated at room temperature, and orthophosphate levels were measured after twelve days. […] Three replicates of 20 mg air dried soil were measured from each pot and placed into 1.5 mL eppendorf tubes. […] In some instances, disclosed herein are measured phosphate levels at 12 days post treatment. […]
The effect of AB09 on a soil microbiome's innate ability to solubilize phosphorus was tested using commercially available soil, which contains a diverse microflora of bacteria. […] After 12 days of incubation soil phosphorus was extracted using the Bray-1P method and quantified using the malachite green assay.
Phosphate levels at 12 days post treatment. […] Orthophosphate was measured using the malachite-green phosphate method.
Orthophosphate was measured using the malachite-green phosphate method (BioAssay Systems Malachite Green Phosphate Assay Kit Catalog No: POMG-25H). […] Data are quantified on a plate reader at 620 nm. […]

Regarding `CC1=CC(Oc2c(C)occc2=O)OC1=O` (stereo not drawn) [AB09, maltol lactone], the “gene expression (Illumina RNASeq) in presence vs absence of AB09” value in the test with Bradyrhizobium japonicum is “induced genetic regulators and pathways for nitrogen fixation and for microaerophilic growth”. For the same compound, in the test with innate soil microbes (24 ug/mL in 1% DMSO, 25 mL per pot, Bray-P1 extraction, vs non-sterile control), the “level of orthophosphate in non-sterile soil” value was “significantly increased”. Also, the “AB09-induced phosphorus enhancement in sterile soil” value in the test on innate soil microbes (autoclaved soil, 24 ug/mL) was “not observed”.
